Source: patent US12415815B2, “Pyrido[2,3-e]oxazine derivatives as agricultural chemicals” (GLOBACHEM NV, priority 2020, dated 2025)
≈ marks a conversion by molar mass, not a printed value.

Tests used:
Assay type in all cases: cell-based
Botrytis cinerea = test: Fungicidal activity screen in amended agar, 96 well plates, Botrytis cinerea; conditions: Medium N agar, 5,000 spores/ml, 20, 2, 0.2 and 0.02 ppm, room temperature (18° C.), assessed after 3 to 4 days, read-out: Botrytis (fungal growth vs DMSO controls, EC50 ranking)
Experimental: (§1) Compounds were screened in 96 well plates with 10 compounds per plate. Each compound was screened using agar amended to 20, 2, 0.2 and 0.02 ppm of the test material. Proline at 50 and 10 ppm and 0.2% DMSO were used respectively as positive and negative controls. Each test concentration and standard were tested twice on a plate.
(§2) Compounds were screened against the following three fungal pathogens—Botrytis cinerea, Alternaria alternata and Zymoseptoria tritici. The agar used in the test varied depending on the pathogen with Medium N used for B. cinerea and A. alternata and 1% potato dextrose agar for Z. tritici. For each pathogen sufficient spores were added to the appropriate agar to give 1,000 spores/mL agar of A. alternata, 5,000 spores/ml agar of B. cinerea and 10,000 spores/mL agar of Z. tritici.
(§3) A ×10 stock solution in 2% DMSO was produced for each dose i.e. 200, 20, 2 and 0.2 ppm, and 10 μl of this added to the appropriate wells on the plate. An equivalent amount of 2% DMSO and Proline stock at 500 and 100 ppm were added for the controls. To each well, 90 μl of the appropriate agar spore suspension was added to give the final well concentrations outlined in the first paragraph.
(§4) Plates were incubated at room temperature (18° C.) and assessed after: • a) 3 to 4 days A. alternata and B. cinerea • b) 7 days for Z. tritici
(§5) The amount of fungal growth in each well was compared to the DMSO controls and scored according to the following key: • A—EC50<2 ppm • B—2≤EC50<20 • C—EC50≥20 • D—No activity detected at the highest dose tested • NT—Not tested

Zymoseptoria tritici = test: Fungicidal activity screen in amended agar, 96 well plates, Zymoseptoria tritici; conditions: Zymoseptoria tritici, 168 h; 1% potato dextrose agar, 10,000 spores/mL, 20, 2, 0.2 and 0.02 ppm, room temperature (18° C.), assessed after 7 days; read-out: Zymoseptoria (fungal growth vs DMSO controls, EC50 ranking)
Experimental: as §1, §2, §3, §4, §5

Alternaria alternata = test: Fungicidal activity screen in amended agar, 96 well plates, Alternaria alternata; conditions: Medium N agar, 1,000 spores/mL, 20, 2, 0.2 and 0.02 ppm, room temperature (18° C.), assessed after 3 to 4 days, read-out: Alternaria (fungal growth vs DMSO controls, EC50 ranking)
Experimental: as §1, §2, §3, §4, §5

`COc1ccccc1Oc1ccc2nc(-n3c(=S)oc4c(OC)ccnc4c3=O)sc2n1` [Example 42, 8-methoxy-3-(5-(2-methoxyphenoxy)thiazolo[5,4-b]pyridin-2-yl)-2-thioxo-2,3-dihydro-4H-pyrido[2,3-e][1,3]oxazin-4-one] was tested, and the EC50 (Botrytis cinerea) was ≥ 20 µg/mL, the EC50 (Zymoseptoria tritici) was 2 to 20 µg/mL (≈ 4.29 to 42.9 µM) and the EC50 (Alternaria alternata) was ≥ 20 µg/mL.

With `COc1ccnc2c(=O)n(-c3nc4ccc(Oc5cccc(Cl)c5)cc4s3)c(=S)oc12` [Example 9, 3-(6-(3-Chlorophenoxy)benzo[d]thiazol-2-yl)-8-methoxy-2-thioxo-2,3-dihydro-4H-pyrido[2,3-e][1,3]oxazin-4-one] the EC50 (Botrytis cinerea) was 2 to 20 µg/mL (≈ 4.26 to 42.6 µM), the EC50 (Zymoseptoria tritici) was < 2 µg/mL and the EC50 (Alternaria alternata) was 2 to 20 µg/mL (≈ 4.26 to 42.6 µM).

In the case of `COc1ccnc2c(=O)n(-c3nc4ccc(OC5CCCCC5)cc4s3)c(=S)oc12` [Example 22, 3-(6-(Cyclohexyloxy)benzo[d]thiazol-2-yl)-8-methoxy-2-thioxo-2,3-dihydro-4H-pyrido[2,3-e][1,3]oxazin-4-one], the EC50 (Botrytis cinerea) is reported as 2 to 20 µg/mL (≈ 4.53 to 45.3 µM), the EC50 (Zymoseptoria tritici) is reported as 2 to 20 µg/mL (≈ 4.53 to 45.3 µM) and the EC50 (Alternaria alternata) is reported as ≥ 20 µg/mL.

`COc1ccnc2c(=O)n(-c3nc4ccc(Oc5ccc(F)cc5)cc4s3)c(=O)oc12` [Example 3, 3-(6-(4-Fluorophenoxy)benzo[d]thiazol-2-yl)-8-methoxy-2H-pyrido[2,3-e][1,3]oxazine-2,4(3H)-dione] was tested, and the EC50 (Botrytis cinerea) was 2 to 20 µg/mL (≈ 4.57 to 45.7 µM), the EC50 (Zymoseptoria tritici) was < 2 µg/mL and the EC50 (Alternaria alternata) was 2 to 20 µg/mL (≈ 4.57 to 45.7 µM).

`COc1ccnc2c(=O)n(-c3nc4ccc(Cc5ccccc5Cl)cc4s3)c(=S)oc12` [Example 29, 3-(6-(2-Chlorobenzyl)benzo[d]thiazol-2-yl)-8-methoxy-2-thioxo-2,3-dihydro-4H-pyrido[2,3-e][1,3]oxazin-4-one] was tested, and the EC50 (Botrytis cinerea) was ≥ 20 µg/mL, the EC50 (Zymoseptoria tritici) was < 2 µg/mL and the EC50 (Alternaria alternata) was ≥ 20 µg/mL.

In the case of `COc1ccnc2c(=O)n(-c3nc4ccc(Oc5ccccc5Cl)cc4s3)c(=O)oc12` [Example 5, 3-(6-(2-Chlorophenoxy)benzo[d]thiazol-2-yl)-8-methoxy-2H-pyrido[2,3-e][1,3]oxazine-2,4(3H)-dione], the EC50 (Botrytis cinerea) is reported as 2 to 20 µg/mL (≈ 4.41 to 44.1 µM), the EC50 (Zymoseptoria tritici) is reported as < 2 µg/mL and the EC50 (Alternaria alternata) is reported as 2 to 20 µg/mL (≈ 4.41 to 44.1 µM).

In the case of `COc1ccnc2c(=O)n(-c3nc4ccc(Oc5cccnc5Cl)nc4s3)c(=S)oc12` [Example 41, 3-(5-((2-chloropyridin-3-yl)oxy)thiazolo[5,4-b]pyridin-2-yl)-8-methoxy-2-thioxo-2,3-dihydro-4H-pyrido[2,3-e][1,3]oxazin-4-one], the EC50 (Botrytis cinerea) is reported as ≥ 20 µg/mL, the EC50 (Zymoseptoria tritici) is reported as ≥ 20 µg/mL and the EC50 (Alternaria alternata) is reported as ≥ 20 µg/mL.

With `COc1ccnc2c(=O)n(-c3nc4ccc(Oc5ccc(C(F)(F)F)cc5Cl)nc4s3)c(=S)oc12` [Example 48, 3-(5-(2-chloro-4-(trifluoromethyl)phenoxy)thiazolo[5,4-b]pyridin-2-yl)-8-methoxy-2-thioxo-2,3-dihydro-4H-pyrido[2,3-e][1,3]oxazin-4-one] the EC50 (Botrytis cinerea) was ≥ 20 µg/mL, the EC50 (Zymoseptoria tritici) was < 2 µg/mL and the EC50 (Alternaria alternata) was ≥ 20 µg/mL.

In the case of `COc1ccnc2c(=O)n(-c3nc4ccc(Oc5ccc(F)cc5Cl)cc4s3)c(=S)oc12` [Example 6, 3-(6-(2-Chloro-4-fluorophenoxy)benzo[d]thiazol-2-yl)-8-methoxy-2-thioxo-2,3-dihydro-4H-pyrido[2,3-e][1,3]oxazin-4-one], the EC50 (Botrytis cinerea) is reported as 2 to 20 µg/mL (≈ 4.1 to 41 µM), the EC50 (Zymoseptoria tritici) is reported as < 2 µg/mL and the EC50 (Alternaria alternata) is reported as 2 to 20 µg/mL (≈ 4.1 to 41 µM).

`COc1ccnc2c(=O)n(-c3nc4ccc(Cc5ccc(F)cc5Cl)cc4s3)c(=S)oc12` [Example 28, 3-(6-(2-Chloro-4-fluorobenzyl)benzo[d]thiazol-2-yl)-8-methoxy-2-thioxo-2,3-dihydro-4H-pyrido[2,3-e][1,3]oxazin-4-one] was tested, and the EC50 (Botrytis cinerea) was 2 to 20 µg/mL (≈ 4.12 to 41.2 µM), the EC50 (Zymoseptoria tritici) was < 2 µg/mL and the EC50 (Alternaria alternata) was 2 to 20 µg/mL (≈ 4.12 to 41.2 µM).

With `COc1ccnc2c(=O)n(-c3nc4ccc(Oc5ccccc5)cc4s3)c(=O)oc12` [Example 4, 8-Methoxy-3-(6-phenoxybenzo[d]thiazol-2-yl)-2H-pyrido[2,3-e][1,3]oxazine-2,4(3H)-dione] the EC50 (Botrytis cinerea) was 2 to 20 µg/mL (≈ 4.77 to 47.7 µM), the EC50 (Zymoseptoria tritici) was < 2 µg/mL and the EC50 (Alternaria alternata) was 2 to 20 µg/mL (≈ 4.77 to 47.7 µM).

In the case of `COc1ccnc2c(=O)n(-c3nc4ccc(Oc5ccc(F)cc5Cl)cc4s3)c(=O)oc12` [Example 1, 3-(6-(2-Chloro-4-fluorophenoxy)benzo[d]thiazol-2-yl)-8-methoxy-2H-pyrido[2,3-e][1,3]oxazine-2,4(3H)-dione], the EC50 (Botrytis cinerea) is reported as 2 to 20 µg/mL (≈ 4.24 to 42.4 µM), the EC50 (Zymoseptoria tritici) is reported as < 2 µg/mL and the EC50 (Alternaria alternata) is reported as 2 to 20 µg/mL (≈ 4.24 to 42.4 µM).

`COc1ccnc2c(=O)n(-c3nc4ccc(Sc5ccccc5)cc4s3)c(=S)oc12` [Example 27, 8-Methoxy-3-(6-(phenylthio)benzo[d]thiazol-2-yl)-2-thioxo-2,3-dihydro-4H-pyrido[2,3-e][1,3]oxazin-4-one] was tested, and the EC50 (Botrytis cinerea) was ≥ 20 µg/mL, the EC50 (Zymoseptoria tritici) was < 2 µg/mL and the EC50 (Alternaria alternata) was 2 to 20 µg/mL (≈ 4.43 to 44.3 µM).

`COc1ccnc2c(=O)n(-c3nc4ccc(Oc5ccccc5C(F)(F)F)cc4s3)c(=S)oc12` [Example 20, 8-Methoxy-2-thioxo-3-(6-(2-(trifluoromethyl)phenoxy)benzo[d]thiazol-2-yl)-2,3-dihydro-4H-pyrido[2,3-e][1,3]oxazin-4-one] was tested, and the EC50 (Botrytis cinerea) was 2 to 20 µg/mL (≈ 3.97 to 39.7 µM), the EC50 (Zymoseptoria tritici) was < 2 µg/mL and the EC50 (Alternaria alternata) was 2 to 20 µg/mL (≈ 3.97 to 39.7 µM).

`COc1ccnc2c(=O)n(-c3nc4ccc(Sc5cccnc5Cl)cc4s3)c(=S)oc12` [Example 47, 3-(6-((2-chloropyridin-3-yl)thio)benzo[d]thiazol-2-yl)-8-methoxy-2-thioxo-2,3-dihydro-4H-pyrido[2,3-e][1,3]oxazin-4-one] was tested, and the EC50 (Botrytis cinerea) was ≥ 20 µg/mL, the EC50 (Zymoseptoria tritici) was < 2 µg/mL and the EC50 (Alternaria alternata) was ≥ 20 µg/mL.

For `COc1ccnc2c(=O)n(-c3nc4ccc(Oc5cncc(C(F)(F)F)c5)cc4s3)c(=S)oc12` [Example 8, 8-Methoxy-2-thioxo-3-(6-((5-(trifluoromethyl)pyridin-3-yl)oxy)benzo[d]thiazol-2-yl)-2,3-dihydro-4H-pyrido[2,3-e][1,3]oxazin-4-one], the EC50 (Botrytis cinerea) was 2 to 20 µg/mL (≈ 3.96 to 39.6 µM), the EC50 (Zymoseptoria tritici) was < 2 µg/mL and the EC50 (Alternaria alternata) was 2 to 20 µg/mL (≈ 3.96 to 39.6 µM).

`COc1ccnc2c(=O)n(-c3nc4ccc(Oc5ccccc5Cl)nc4s3)c(=S)oc12` [Example 40, 3-(5-(2-chlorophenoxy)thiazolo[5,4-b]pyridin-2-yl)-8-methoxy-2-thioxo-2,3-dihydro-4H-pyrido[2,3-e][1,3] oxazin-4-one] was tested, and the EC50 (Botrytis cinerea) was ≥ 20 µg/mL, the EC50 (Zymoseptoria tritici) was < 2 µg/mL and the EC50 (Alternaria alternata) was ≥ 20 µg/mL.

`COc1ccnc2c(=O)n(-c3nc4ccc(Sc5ccccc5Cl)nc4s3)c(=S)oc12` [Example 38, 3-(5-((2-chlorophenyl)thio)thiazolo [5,4-b]pyridin-2-yl)-8-methoxy-2-thioxo-2,3-dihydro-4H-pyrido[2,3-e][1,3]oxazin-4-one] was tested, and the EC50 (Botrytis cinerea) was ≥ 20 µg/mL, the EC50 (Zymoseptoria tritici) was < 2 µg/mL and the EC50 (Alternaria alternata) was ≥ 20 µg/mL.

`COc1ccnc2c(=O)n(-c3nc4ccc(Oc5ccccc5)cc4s3)c(=S)oc12` [Example 17, 8-Methoxy-3-(6-phenoxybenzo[d]thiazol-2-yl)-2-thioxo-2,3-dihydro-4H-pyrido[2,3-e][1,3]oxazin-4-one] was tested, and the EC50 (Botrytis cinerea) was 2 to 20 µg/mL (≈ 4.59 to 45.9 µM), the EC50 (Zymoseptoria tritici) was < 2 µg/mL and the EC50 (Alternaria alternata) was 2 to 20 µg/mL (≈ 4.59 to 45.9 µM).

In the case of `CCOc1ccccc1Oc1ccc2nc(-n3c(=S)oc4c(OC)ccnc4c3=O)sc2c1` [Example 49, 3-(6-(2-ethoxyphenoxy)benzo[d]thiazol-2-yl)-8-methoxy-2-thioxo-2,3-dihydro-4H-pyrido[2,3-e][1,3]oxazin-4-one], the EC50 (Botrytis cinerea) is reported as ≥ 20 µg/mL, the EC50 (Zymoseptoria tritici) is reported as < 2 µg/mL and the EC50 (Alternaria alternata) is reported as ≥ 20 µg/mL.

With `COc1ccnc2c(=O)n(-c3nc4ccc(OC5CCCC5)cc4s3)c(=S)oc12` [Example 23, 3-(6-(Cyclopentyloxy)benzo[d]thiazol-2-yl)-8-methoxy-2-thioxo-2,3-dihydro-4H-pyrido[2,3-e][1,3]oxazin-4-one] the EC50 (Botrytis cinerea) was 2 to 20 µg/mL (≈ 4.68 to 46.8 µM), the EC50 (Zymoseptoria tritici) was < 2 µg/mL and the EC50 (Alternaria alternata) was ≥ 20 µg/mL.

With `COc1ccnc2c(=O)n(-c3nc4ccc(Oc5ccccc5OC(F)F)cc4s3)c(=S)oc12` [Example 50, 3-(6-(2-(difluoromethoxy)phenoxy)benzo[d]thiazol-2-yl)-8-methoxy-2-thioxo-2,3-dihydro-4H-pyrido[2,3-e][1,3]oxazin-4-one] the EC50 (Botrytis cinerea) was ≥ 20 µg/mL, the EC50 (Zymoseptoria tritici) was < 2 µg/mL and the EC50 (Alternaria alternata) was ≥ 20 µg/mL.

`COc1ccnc2c(=O)n(-c3nc4ccc(Oc5cc(F)cc(F)c5)cc4s3)c(=S)oc12` [Example 21, 3-(6-(3,5-Difluorophenoxy)benzo[d]thiazol-2-yl)-8-methoxy-2-thioxo-2,3-dihydro-4H-pyrido[2,3-e][1,3]oxazin-4-one] was tested, and the EC50 (Botrytis cinerea) was 2 to 20 µg/mL (≈ 4.24 to 42.4 µM), the EC50 (Zymoseptoria tritici) was < 2 µg/mL and the EC50 (Alternaria alternata) was 2 to 20 µg/mL (≈ 4.24 to 42.4 µM).
